Key:
[1] = Albumin/creatinine ratio in the CANVAS clinical trial, subjects with micro- or macroalbuminuria; type: in vivo, human; conditions: for median percent change from baseline in ACR at Week 52: subjects with macroalbuminuria, Week 52, 82% of subjects on ACEIs or ARBs at baseline, placebo −3.6%
Procedure: (§1) The albumin/creatinine ratio was measured at baseline, over 12 weeks, over 52 weeks, and over 104 weeks, in subjects participating in the CANagliflozin cardioVascular Assessment Study (CANVAS), the DIA3004 clinical trial, and the DIA3009 clinical trial, respectively. (Complete protocol details for the CANVAS, DIA3004 and DIA3009 clinical trials are available on www.clinicaltrials.gov).
In subjects with macroalbuminuria in CANVAS, the median percent change from baseline in ACR at Week 52 was −3.6% in the placebo group, −58.6% in the canagliflozin 100 mg group, and −53.3% in the canagliflozin 300 mg group.

[2] = Albuminuria in the DIA3004 clinical trial, subjects with moderate renal impairment; type: in vivo, human; conditions: 52-week study, placebo 19.7%
Procedure: as §1

[3] = eGFR change from baseline over time in the CANVAS, DIA3004 and DIA3009 clinical trials; type: in vivo, human; conditions: maximal at first post baseline visit, stable or attenuated with continued treatment; CANVAS and DIA3004 52 weeks, DIA3009 104 weeks; FIG. 3-5
Excerpt: The time course of eGFR changes over 52 weeks in the CANVAS clinical trial is shown in FIG. 3; over a 52-week study in subjects with moderate renal impairment (in the DIA3004 clinical trial) are shown in FIG. 4; and over a 104-week period in an active comparator study (DIA3009, add-on to metformin) are shown in FIG. 5.

[4] = metformin on its own, in the diabetic; cited from earlier work

Structure (SMILES) | median percent change from baseline in ACR at Week 52 ([1]; canagliflozin 100 mg) | median percent change from baseline in ACR at Week 52 ([1]; canagliflozin 300 mg) | albuminuria after 52 weeks of treatment (in words) ([1]; subjects with micro- and macroalbuminuria at baseline, FIG. 1 and FIG. 2) | median percent reductions in albuminuria ([2]; baseline eGFR 30 to <50 ml/min/1.73 m^2, canagliflozin 100 mg) | median percent reductions in albuminuria ([2]; baseline eGFR 30 to <50 ml/min/1.73 m^2, canagliflozin 300 mg) | effect on eGFR (in words) [3] | average improvement in the HbA1c value [4]
Cc1ccc([C@@H]2O[C@H](CO)[C@@H](O)[C@H](O)[C@H]2O)cc1Cc1ccc(-c2ccc(F)cc2)s1 [canagliflozin] | −58.6% | −53.3% | reductions in albuminuria | −16.4% | −28.0% | dose-dependent, reversible reduction in eGFR | –
CN(C)C(=N)N=C(N)N [metformin] | – | – | – | – | – | – | 1.0-1.5%

Source: patent publication US20180344756A1, “METHODS FOR THE TREATMENT AND PREVENTION OF RENAL DISORDERS AND FATTY LIVER DISORDERS” (Janssen Pharmaceutica NV, priority 2014, published 2018)
